According to patent publication US10138255B2, “Piperazine derivatives as HIV protease inhibitors” (Merck Sharp & Dohme Corp., priority 2014, dated 2018):

What follows are molecules tested on HIV-1 (H9IIIB strain) (assay: Cell-Based HIV Infection Assay Using a Reporter (MT4-GFP cells)). Settings: Human immunodeficiency virus 1, inflection point (IP) of viral growth inhibition; MT4-GFP cells infected with HIV-1 H9IIIB; 50% normal human serum; mean of at least two independent experiments; read-out: Cell Based IP (50% NHS).
Protocol: Cell-Based HIV Infection Assay Using a Reporter (“Cell-Based”):
MT4-GFP cells contain a stably integrated HIV long terminal repeat promoter directing the transcription of green fluorescent protein (GFP). When HIV infects the cell, GFP is produced and the cell becomes green. MT4-GFP cells (250,000 cells/mL) were bulk-infected with HIV-1 (H9IIIB strain) at low multiplicity of infection (MOI) in RPM 1640 media, supplemented with 10% FBS for 24 h. Cells were then washed once in RPMI 1640 plus 10% FBS and resuspended in RPMI plus 50% normal human serum (NHS). Test compounds were serial-diluted in DMSO using an ECHO liquid dispenser. A control well included a combination of three HIV drugs (an inhibitor of HIV protease, integrase strand transfer and a non-nucleoside reverse transcriptase inhibitor; triple drug). The infected MT4-GFP cells were added to a 384-well poly-D-lysine coated black plate with clear bottom in which the diluted test compounds were placed. The cells were seeded in the plate at 8,000 cells per well and the final DMSO concentration was 0.4%. Infected cells were quantified at both 24 and 48 h post incubation using an Acumen eX3 plate reader. Viral reproductive ratio (R0) was determined using the number of infected cells at 48 h divided by the number of infected cells at 24 h. Percent viral growth inhibition was calculated by [1−(R−Rtripledrug)/(RDMSO−Rtripledrug)]*100. Compound potency inflection point (IP) was determined with use of a 4-parameter dose response curve analysis.
Data shown in the table reflects the mean of at least two independent experiments.
In the case of COC(=O)N[C@H](C(=O)Nc1cccc(F)c1CCC1CNC2CCCS(=O)(=O)N1C2)C(c1ccc(OC)nc1)c1ccc(F)c(F)c1 (stereo in doubt) [Example 68, methyl [(1S,2R)-2-(3,4-difluorophenyl)-1-({2-[2-(2,2-dioxido-2-thia-1,7-diazabicyclo[4.3.1]dec-9-yl)ethyl]-3-fluorophenyl}carbamoyl)-2-(6-methoxypyridin-3-yl)ethyl]carbamate], the EC50 is reported as 12 nM. For COC(=O)N[C@H](C(=O)Nc1cccc(F)c1CCC1CNC2CCCS(=O)(=O)N1C2)C(c1ccc(Cl)cc1)c1ccc(OC(C)C)nc1 (stereo in doubt) [Example 94, methyl {(1S,2R)-2-(4-chlorophenyl)-1-({2-[2-(2,2-dioxido-2-thia-1,7-diazabicyclo[4.3.1]dec-9-yl)ethyl]-3-fluorophenyl}carbamoyl)-2-[6-(1-methylethoxy)pyridin-3-yl]ethyl}carbamate], the EC50 was 6.4 nM. N[C@H](C(=O)Nc1cccc(F)c1CCC1CNC2CCCS(=O)(=O)N1C2)C(c1ccc(Cl)cc1)c1ccnc(C(F)(F)F)c1 (stereo in doubt) [Example 123, (βR)-4-chloro-N-{2-[2-(2,2-dioxido-2-thia-1,7-diazabicyclo[4.3.1]dec-9-yl)ethyl]-3-fluorophenyl}-β-[2-(trifluoromethyl)pyridin-4-yl]-L-phenylalaninamide] showed an EC50 of 6.8 nM. Molecule CC(C)Oc1ccc(C(c2ccc(Cl)cc2)[C@H](N)C(=O)Nc2cncc(F)c2CC[C@H]2CN[C@@H]3CCCS(=O)(=O)N2C3)cn1 (stereo in doubt) [Example 240, (2S,3R)-2-amino-3-(4-chlorophenyl)-N-(4-(2-((6R,9S)-2,2-dioxido-2-thia-1,7-diazabicyclo[4.3.1]decan-9-yl)ethyl)-5-fluoropyridin-3-yl)-3-(6-isopropoxypyridin-3-yl)propanamide] has an EC50 of 8.4 nM. Molecule N[C@H](C(=O)Nc1cccc(F)c1CCC1CNC2CCCS(=O)(=O)N1C2)[C@@H](c1ccc(F)cc1)c1cc(F)cc(F)c1 (stereo partly drawn) [Example 1, (βS)—N-{2-[2-(2,2-Dioxido-2-thia-1,7-diazabicyclo[4.3.1]dec-9-yl)ethyl]-3-fluorophenyl}-3,5-difluoro-β-(4-fluorophenyl)-L-phenylalaninamide] has an EC50 of 2.9 nM. N[C@H](C(=O)Nc1cccc(F)c1CCC1CNC2CCCS(=O)(=O)N1C2)[C@@H](c1ccc(F)cc1)c1cccc(C(F)(F)F)c1 (stereo partly drawn) [Example 2, (βS)—N-{2-[2-(2,2-Dioxido-2-thia-1,7-diazabicyclo[4.3.1]dec-9-yl)ethyl]-3-fluorophenyl}-β-(4-fluorophenyl)-3-(trifluoromethyl)-L-phenylalaninamide] showed an EC50 of 6.7 nM. COC(=O)N[C@H](C(=O)Nc1cccc(F)c1CCC1CNC2CCCS(=O)(=O)N1C2)[C@@H](c1ccc(Cl)cc1)C(C)C (stereo partly drawn) [Example 3, Methyl [(1S,2R)-2-(4-chlorophenyl)-1-({2-[2-(2,2-dioxido-2-thia-1,7-diazabicyclo[4.3.1]dec-9-yl)ethyl]-3-fluorophenyl}carbamoyl)-3-methylbutyl]carbamate] was tested, and the EC50 was 14 nM. With COC(=O)N[C@H](C(=O)Nc1cccc(F)c1CCC1CNC2CCCS(=O)(=O)N1C2)[C@@H](c1ccc(Cl)cc1)C1CC(F)(F)C1 (stereo partly drawn) [Example 4, Methyl [(1S,2R)-2-(4-chlorophenyl)-2-(3,3-difluorocyclobutyl)-1-({2-[2-(2,2-dioxido-2-thia-1,7-diazabicyclo[4.3.1]dec-9-yl)ethyl]-3-fluorophenyl}carbamoyl)ethyl]carbamate] the EC50 was 13 nM. COC(=O)N[C@H](C(=O)Nc1cccc(F)c1CCC1CNC2CCCS(=O)(=O)N1C2)[C@@H](c1ccc(Cl)cc1)C1CCC(F)(F)CC1 (stereo partly drawn) [Example 5, Methyl [(1S,2R)-2-(4-chlorophenyl)-2-(4,4-difluorocyclohexyl)-1-({2-[2-(2,2-dioxido-2-thia-1,7-diazabicyclo[4.3.1]dec-9-yl)ethyl]-3-fluorophenyl}carbamoyl)ethyl]carbamate] showed an EC50 of 9.4 nM. In the case of CCO[C@H]1CC[C@H]([C@H](c2ccc(Cl)cc2)[C@H](N)C(=O)Nc2cccc(F)c2CC[C@H]2CN[C@@H]3CCCS(=O)(=O)N2C3)CC1 [Example 6, (2S,3R)-2-amino-3-(4-chlorophenyl)-N-(2-(2-((6R,9S)-2,2-dioxido-2-thia-1,7-diazabicyclo[4.3.1]decan-9-yl)ethyl)-3-fluorophenyl)-3-((1r,4R)-4-ethoxycyclohexyl)propanamide], the EC50 is reported as 6.2 nM. Work on CO[C@H]1CC[C@H]([C@H](c2ccc(Cl)cc2)[C@H](N)C(=O)Nc2cccc(F)c2CC[C@H]2CN[C@@H]3CCCS(=O)(=O)N2C3)CC1 [Example 7, (βR)-4-Chloro-N-(2-{2-[(6R,9S)-2,2-dioxido-2-thia-1,7-diazabicyclo[4.3.1]dec-9-yl]ethyl}-3-fluorophenyl)-β-[(1r,4R)-4-methoxycyclohexyl]-L-phenylalaninamide] yielded an EC50 of 3.1 nM. In the case of COC(=O)N[C@H](C(=O)Nc1cccc(F)c1CC[C@H]1CN[C@@H]2CCCS(=O)(=O)N1C2)[C@@H](c1ccc(Cl)cc1)[C@H]1CCO[C@@H](CC(F)(F)F)C1 [Example 8, Methyl ((1R,2S)-1-(4-chlorophenyl)-3-((2-(2-((6R,9S)-2,2-dioxido-2-thia-1,7-diazabicyclo[4.3.1]decan-9-yl)ethyl)-3-fluorophenyl)amino)-3-oxo-1-((2R,4S)-2-(2,2,2-trifluoroethyl)tetrahydro-2H-pyran-4-yl)propan-2-yl)carbamate], the EC50 is reported as 8.7 nM. COC(=O)N[C@H](C(=O)Nc1cccc(F)c1CCC1CNC2CCCS(=O)(=O)N1C2)[C@H](CCC1CCOCC1)c1ccc(Cl)c(F)c1 (stereo partly drawn) [Example 9, Methyl [(1S,2R)-2-(4-chloro-3-fluorophenyl)-1-({2-[2-(2,2-dioxido-2-thia-1,7-diazabicyclo[4.3.1]dec-9-yl)ethyl]-3-fluorophenyl}carbamoyl)-4-(tetrahydro-2H-pyran-4-yl)butyl]carbamate] was tested, and the EC50 was 7.1 nM. CC1(C)C[C@@H]([C@H](c2ccc(Cl)cc2)[C@H](N)C(=O)Nc2cccc(F)c2CC[C@H]2CN[C@@H]3CCCS(=O)(=O)N2C3)CCO1 [Example 10, (2S,3R)-2-amino-3-(4-chlorophenyl)-3-((S)-2,2-dimethyltetrahydro-2H-pyran-4-yl)-N-(2-(2-((6R,9S)-2,2-dioxido-2-thia-1,7-diazabicyclo[4.3.1]decan-9-yl)ethyl)-3-fluorophenyl)propanamide] gave an EC50 of 6.7 nM. In the case of CC(C)Oc1ccc([C@H](c2ccc(Cl)cc2)[C@H](N)C(=O)Nc2cccc(F)c2CCC2CNC3CCCS(=O)(=O)N2C3)cn1 (stereo partly drawn) [Example 11, (βS)-4-Chloro-N-{2-[2-(2,2-dioxido-2-thia-1,7-diazabicyclo[4.3.1]dec-9-yl)ethyl]-3-fluorophenyl}-β-[6-(1-methylethoxy)pyridin-3-yl]-L-phenylalaninamide], the EC50 is reported as 4 nM. In the case of CC(F)(F)c1ccc([C@H](c2ccc(Cl)cc2)[C@H](N)C(=O)Nc2cccc(F)c2CC[C@H]2CN[C@@H]3CCCS(=O)(=O)N2C3)cn1 [Example 12, (2S,3S)-2-amino-3-(4-chlorophenyl)-3-(6-(1,1-difluoroethyl)pyridin-3-yl)-N-(2-(2-((6R,9S)-2,2-dioxido-2-thia-1,7-diazabicyclo[4.3.1]decan-9-yl)ethyl)-3-fluorophenyl)propanamide], the EC50 is reported as 5.9 nM. Molecule COC(=O)N[C@H](C(=O)Nc1cccc(F)c1CC[C@H]1CN[C@@H]2CCCS(=O)(=O)N1C2)[C@]1(c2ccc(Cl)cc2)CC[C@@H](OC)CC1 [Example 13, Methyl {(1S)-1-[trans-1-(4-chlorophenyl)-4-methoxycyclohexyl]-2-[(2-{2-[(6R,9S)-2,2-dioxido-2-thia-1,7-diazabicyclo[4.3.1]dec-9-yl]ethyl}-3-fluorophenyl)amino]-2-oxoethyl}carbamate] has an EC50 of 7.6 nM. In the case of COC(=O)N1CCC(c2ccc(Cl)cc2)([C@H](N)C(=O)Nc2cccc(F)c2CC[C@H]2CN[C@@H]3CCCS(=O)(=O)N2C3)CC1 [Example 14, Methyl 4-{(1S)-1-amino-2-[(2-{2-[(6R,9S)-2,2-dioxido-2-thia-1,7-diazabicyclo[4.3.1]dec-9-yl]ethyl}-3-fluorophenyl)amino]-2-oxoethyl}-4-(4-chlorophenyl)piperidine-1-carboxylate], the EC50 is reported as 14 nM. C[C@@H]1C[C@H](C(c2ccc(F)cc2)[C@H](N)C(=O)Nc2cccc(F)c2CC[C@H]2CN[C@@H]3CCCS(=O)(=O)N2C3)C[C@H](C)O1 (stereo partly drawn) [Example 15, β-[(2R,4r,6S)-2,6-Dimethyltetrahydro-2H-pyran-4-yl]-N-(2-{2-[(6R,9S)-2,2-dioxido-2-thia-1,7-diazabicyclo[4.3.1]dec-9-yl]ethyl}-3-fluorophenyl)-4-fluoro-L-phenylalaninamide] showed an EC50 of 8.8 nM.

Same assay, conditions: inflection point (IP) of viral growth inhibition; MT4-GFP cells infected with HIV-1 H9IIIB; 50% normal human serum; mean of at least two independent experiments; read-out: Cell Based IP (50% NHS)
Work on COC(=O)N[C@H](C(=O)Nc1cncc(F)c1CC[C@H]1CN[C@@H]2CCCS(=O)(=O)N1C2)C1(c2ccc(Cl)cc2)CCC(C(F)(F)F)CC1 (relative stereo) [Example 270, methyl {(1S)-1-[cis-1-(4-chlorophenyl)-4-(trifluoromethyl)cyclohexyl]-2-[(4-{2-[(6R,9S)-2,2-dioxido-2-thia-1,7-diazabicyclo[4.3.1]dec-9-yl]ethyl}-5-fluoropyridin-3-yl)amino]-2-oxoethyl}carbamate] yielded an EC50 of 20 nM.
